Measurements from US11180462B2, “Microbiocidal oxadiazole derivatives” (SYNGENTA PARTICIPATIONS AG, priority 2015, dated 2021).

Key:
Phakopsora Pachyrhizi = test: Fungicidal activity against Phakopsora pachyrhizi / soybean / leaf disc preventative (Asian soybean rust); type: in vivo; conditions: foliar, 200 ppm in the applied formulation, soybean leaf disks, compared to untreated control leaf disks, read-out: disease control
Description: Leaf disks or leaf segments of various plant species are cut from plants grown in a greenhouse. The cut leaf disks or segments are placed in multiwell plates (24-well format) onto water agar. The leaf disks are sprayed with a test solution before (preventative) or after (curative) inoculation. Compounds to be tested are prepared as DMSO solutions (max. 10 mg/ml) which are diluted to the appropriate concentration with 0.025% Tween20 just before spraying. The inoculated leaf disks or segments are incubated under defined conditions (temperature, relative humidity, light, etc.) according to the respective test system. A single evaluation of disease level is carried out 3 to 14 days after inoculation, depending on the pathosystem. Percent disease control relative to the untreated check leaf disks or segments is then calculated.
Fungicidal Activity Against Phakopsora Pachyrhizi Soybean/Leaf Disc Preventative (Asian Soybean Rust)
Soybean leaf disks are placed on water agar in multiwell plates (24-well format) and sprayed with the formulated test compound diluted in water. One day after application leaf discs are inoculated by spraying a spore suspension on the lower leaf surface. After an incubation period in a climate cabinet of 24-36 hours in darkness at 20° C. and 75% rh leaf disc are kept at 20° C. with 12 h light/day and 75% rh. The activity of a compound is assessed as percent disease control compared to untreated when an appropriate level of disease damage appears in untreated check leaf disks (12 to 14 days after application).
The following compounds at 200 ppm in the applied formulation give at least 80% disease control in this test when compared to untreated control leaf disks under the same conditions, which show extensive disease development.

[1] = system: Glomerella lagenarium (Colletotrichum lagenarium); test: Fungicidal activity against Glomerella lagenarium (Colletotrichum lagenarium) liquid culture / cucumber / preventative (anthracnose); type: cell-based; conditions: Colletotrichum orbiculare; 20 ppm in the applied formulation; liquid culture (PDB), growth inhibition measured photometrically after 3 to 4 days; compared to untreated control; read-out: disease control
Outline: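 Photometric read-out of fungal growth after 2–7 days, expressed as percent antifungal activity versus untreated check. Cryo-stored conidia in PDB; compound at 20 ppm; dark, 24 °C, 96% RH.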

Row | Structure (SMILES) | pest or weed control at 200 ppm (Phakopsora Pachyrhizi) [%] | inhibition of growth at 20 ppm [1] [%]
1 | CCCN(Cc1ccc(-c2noc(C(F)(F)F)n2)cc1)C(=O)c1ccccc1Cl [Compound 1.653, 2-chloro-N-propyl-N-[[4-[5-(trifiuoromethyl)-1,2,4-oxadiazol-3-yl]phenyl]methyl]-benzamide] | ≥ 80 | ≥ 80
2 | O=C(C1CC1)N(Cc1ccc(-c2noc(C(F)(F)F)n2)cc1)CC1CC1 [Compound 1.246, N-(cyclopropylmethyl)-N-[[4-[5-(trifluoromethyl)-1,2,4-oxadiazol-3-yl]phenyl]methyl]-cyclopropane-carboxamide] | ≥ 80 | ≥ 80
3 | O=C(ON(Cc1ccc(-c2noc(C(F)(F)F)n2)cc1)C(=O)c1ccccc1Cl)c1ccccc1Cl [Compound 1.755, [(2-chlorobenzoyl)-[[4-[5-(trifluoromethyl)-1,2,4-oxadiazol-3-yl]phenyl]methyl]-amino] 2-chlorobenzoate] | ≥ 80 | ≥ 80
4 | CCON(Cc1ccc(-c2noc(C(F)(F)F)n2)cc1)C(=O)CC1CC1 [Compound 1.632, 2-cyclopropyl-N-ethoxy-N-[[4-[5-(trifluoromethyl)-1,2,4-oxadiazol-3-yl]phenyl]methyl]-acetamide] | ≥ 80 | ≥ 80
5 | CCCCON(Cc1ccc(-c2noc(C(F)(F)F)n2)cc1)C(=O)C1CCCO1 (centres unmarked) [Compound 1.644, N-butoxy-N-[[4-[5-(trifluoromethyl)-1,2,4-oxadiazol-3-yl]phenyl]methyl]-tetrahydrofuran-2-carboxamide] | ≥ 80 | ≥ 80
6 | CCCCON(Cc1ccc(-c2noc(C(F)(F)F)n2)cc1)C(=O)CC#N [Compound 1.645, N-butoxy-2-cyano-N-[[4-[5-(trifluoromethyl)-1,2,4-oxadiazol-3-yl]phenyl]methyl]-acetamide] | ≥ 80 | ≥ 80
7 | CCCCON(Cc1ccc(-c2noc(C(F)(F)F)n2)cc1)C(=O)C1CC1(F)F (centres unmarked) [Compound 1.634, N-butoxy-2,2-difluoro-N-[[4-[5-(trifluoromethyl)-1,2,4-oxadiazol-3-yl]phenyl]methyl]-cyclopropane-carboxamide] | ≥ 80 | ≥ 80
8 | C#CCN(Cc1ccc(-c2noc(C(F)(F)F)n2)cc1)C(=O)C1CC1c1ccccc1 (centres unmarked) [Compound 1.166, 2-phenyl-N-prop-2-ynyl-N-[[4-[5-(trifluoromethyl)-1,2,4-oxadiazol-3-yl]phenyl]methyl]-cyclopropane-carboxamide] | ≥ 80 | ≥ 80
9 | CCC(CC(=O)N(Cc1ccc(-c2noc(C(F)(F)F)n2)cc1)OC)C(F)(F)F (centres unmarked) [Compound 1.82, N-methoxy-3-(trifluoromethyl)-N-[[4-[5-(trifluoromethyl)-1,2,4-oxadiazol-3-yl]phenyl]methyl]-pentamide] | ≥ 80 | ≥ 80
10 | O=C(CC1CC1)N(Cc1ccc(-c2noc(C(F)(F)F)n2)cc1)CC(F)(F)F [Compound 1.706, 2-cyclopropyl-N-(2,2,2-trifluoroethyl)-N-[[4-[5-(trifluoromethyl)-1,2,4-oxadiazol-3-yl]phenyl]methyl]-acetamide] | ≥ 80 | ≥ 80
11 | CCCCON(Cc1ccc(-c2noc(C(F)(F)F)n2)cc1)C(=O)C(CC)COC (centres unmarked) [Compound 1.642, N-butoxy-2-(methoxymethyl)-N-[[4-[5-(trifluoromethyl)-1,2,4-oxadiazol-3-yl]phenyl]methyl]-butanamide] | ≥ 80 | ≥ 80
12 | CC(C)(C)CC(=O)N(Cc1ccc(-c2noc(C(F)(F)F)n2)cc1)CC1CC1 [Compound 1.224, N-(cyclopropylmethyl)-3,3-dimethyl-N-[[4-[5-(trifluoromethyl)-1,2,4-oxadiazol-3-yl]phenyl]methyl]-butanamide] | ≥ 80 | ≥ 80
13 | CCCCON(Cc1ccc(-c2noc(C(F)(F)F)n2)cc1)C(=O)C1(C)COC1 [Compound 1.641, N-butoxy-3-methyl-N-[[4-[5-(trifluoromethyl)-1,2,4-oxadiazol-3-yl]phenyl]methyl]-oxetane-3-carboxamide] | ≥ 80 | ≥ 80
14 | CCCCON(Cc1ccc(-c2noc(C(F)(F)F)n2)cc1)C(=O)CC(F)(F)F [Compound 1.648, N-butoxy-3,3,3-trifluoro-N-[[4-[5-(trifluoromethyl)-1,2,4-oxadiazol-3-yl]phenyl]methyl]-propanamide] | ≥ 80 | ≥ 80
15 | CCC(C)C(=O)N(Cc1ccc(-c2noc(C(F)(F)F)n2)cc1)CC(F)(F)F (centres unmarked) [Compound 1.697, 2-methyl-N-(2,2,2-trifluoroethyl)-N-[[4-[5-(trifluoromethyl)-1,2,4-oxadiazol-3-yl]phenyl]methyl]-butanamide] | ≥ 80 | ≥ 80
16 | CCCCON(Cc1ccc(-c2noc(C(F)(F)F)n2)cc1)C(=O)CCCOC [Compound 1.643, N-butoxy-4-methoxy-N-[[4-[5-(trifluoromethyl)-1,2,4-oxadiazol-3-yl]phenyl]methyl]-butanamide] | ≥ 80 | ≥ 80
17 | CCCCON(Cc1ccc(-c2noc(C(F)(F)F)n2)cc1)C(C)=O [Compound 1.649, N-butoxy-N-[[4-[5-(trifluoromethyl)-1,2,4-oxadiazol-3-yl]phenyl]methyl]-acetamide] | ≥ 80 | ≥ 80
18 | N#CC1(C(=O)OCCN(Cc2ccc(-c3noc(C(F)(F)F)n3)cc2)C(=O)C2(C#N)CC2)CC1 [Compound 1.730, 2-[(1-cyanocyclopropane-carbonyl)-[[4-[5-(trifluoromethyl)-1,2,4-oxadiazol-3-yl]phenyl]methyl]-amino]ethyl 1-cyanocyclopropane-carboxylate] | ≥ 80 | ≥ 80
19 | O=C(C1CCC1)N(Cc1ccc(-c2noc(C(F)(F)F)n2)cc1)CC(F)(F)F [Compound 1.694, N-(2,2,2-trifluoroethyl)-N-[[4-[5-(trifluoromethyl)-1,2,4-oxadiazol-3-yl]phenyl]methyl]-cyclobutane-carboxamide] | ≥ 80 | ≥ 80
20 | O=C(CC1CCCC1)N(Cc1ccc(-c2noc(C(F)(F)F)n2)cc1)C1CC1 [Compound 1.84, 2-cyclopentyl-N-cyclopropyl-N-[[4-[5-(trifluoromethyl)-1,2,4-oxadiazol-3-yl]phenyl]methyl]-acetamide] | ≥ 80 | ≥ 80
21 | CCCCON(Cc1ccc(-c2noc(C(F)(F)F)n2)cc1)C(=O)C1(C#N)CC1 [Compound 1.646, N-butoxy-1-cyano-N-[[4-[5-(trifluoromethyl)-1,2,4-oxadiazol-3-yl]phenyl]methyl]-cyclopropane-carboxamide] | ≥ 80 | ≥ 80
22 | CCCN(Cc1ccc(-c2noc(C(F)(F)F)n2)cc1)C(=O)C1CC1C (centres unmarked) [Compound 1.657, 2-methyl-N-propyl-N-[[4-[5-(trifluoromethyl)-1,2,4-oxadiazol-3-yl]phenyl]methyl]-cyclopropane-carboxamide] | ≥ 80 | ≥ 80
